Reference: the supplement of paper PMC10307832

compound: COc1cc(Nc2ncc(F)c(Nc3ccc4c(n3)NC(=O)C(C)(C)O4)n2)cc(OC)c1OC [R406] + CS(=O)(=O)CCNCc1ccc(-c2ccc3ncnc(Nc4ccc(OCc5cccc(F)c5)c(Cl)c4)c3c2)o1 [Lapatinib] (partner 2 µM); test: relative viability (nuclei count vs DMSO), 5 days (fraction); higher = more cells survive; conditions: first compound 0.08 µM
Procedure, shortened: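 For relative viability, nuclei counts in treated wells were divided by those in vehicle wells. Lung cancer cell lines had been pin-tool dosed in 1536-well plates the day after seeding and cultured for 5 days, then fixed and stained in one step (final 0.05% Triton X-100, 1% formaldehyde, 1 ug/ml Hoechst) and imaged at 4×. Doses were one drug alone or a fixed anchor-drug dose plus five library-drug doses (not always all listed) in √10 steps, and values are duplicate-plate medians.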

Compared with NCI-H838, NCI-H1650 is lower in relative viability: 0.886 for the first, 0.724 for the second.

Going from EBC-1 to NCI-H1703, the relative viability rises from 0.22 to 1.52.

Going from NCI-H1993 to PC-14, the relative viability falls from 0.882 to 0.302.

Compared with NCI-H596, NCI-H2126 is lower in relative viability: 1.04 for the first, 0.763 for the second.

Compared with EMC-BAC-2, NCI-H2085 is lower in relative viability: 0.888 for the first, 0.783 for the second.

Compared with Calu-6, HCC-366 is lower in relative viability: 1.02 for the first, 0.908 for the second.

First: NCI-H1666
Second: NCI-H647
The relative viability of the first is lower: 0.784 for the first, 0.84 for the second.

First: LK-2
Second: NCI-H2087
The relative viability of the first is higher: 0.856 for the first, 0.826 for the second.

First: NCI-H358
Second: NCI-H2170
The relative viability of the first is higher: 0.407 for the first, 0.253 for the second.

Compared with H3255, COR-L23 is higher in relative viability: 0.257 for the first, 1.02 for the second.

Compared with COR-L 105, IA-LM is higher in relative viability: 0.359 for the first, 0.99 for the second.

Going from LOU-NH91 to NCI-H1793, the relative viability rises from 0.785 to 0.823.

Going from NCI-H2405 to HOP-62, the relative viability falls from 0.98 to 0.918.

Going from HCC-44 to A549, the relative viability falls from 0.899 to 0.882.

Going from SK-MES-1 to LU99A, the relative viability rises from 0.416 to 0.946.

Going from BEN to NCI-H1395, the relative viability rises from 0.627 to 0.821.

In the case of NCI-H1299, the relative viability is reported as 1.01.

same assay, conditions: first compound 0.253 µM

First: NCI-H838
Second: NCI-H1650
The relative viability of the first is higher: 1.11 for the first, 0.926 for the second.

Going from EBC-1 to NCI-H1993, the relative viability rises from 0.226 to 0.964.

First: PC-14
Second: NCI-H596
The relative viability of the first is lower: 0.442 for the first, 1.2 for the second.

Compared with NCI-H2126, EMC-BAC-2 is higher in relative viability: 0.798 for the first, 0.963 for the second.

First: NCI-H2085
Second: Calu-6
The relative viability of the first is lower: 0.851 for the first, 1.25 for the second.

First: HCC-366
Second: NCI-H1666
The relative viability of the first is higher: 1.15 for the first, 0.79 for the second.

Going from NCI-H647 to LK-2, the relative viability falls from 1.17 to 1.03.

First: NCI-H2087
Second: NCI-H358
The relative viability of the first is higher: 1.26 for the first, 0.441 for the second.

Compared with NCI-H2170, H3255 is higher in relative viability: 0.25 for the first, 0.264 for the second.

Compared with COR-L23, COR-L 105 is lower in relative viability: 1.09 for the first, 0.391 for the second.

Going from IA-LM to LOU-NH91, the relative viability falls from 1.26 to 0.792.

Compared with NCI-H1793, NCI-H2405 is higher in relative viability: 0.692 for the first, 1.14 for the second.

Going from HOP-62 to HCC-44, the relative viability rises from 0.949 to 1.08.

First: A549
Second: SK-MES-1
The relative viability of the first is higher: 1.04 for the first, 0.477 for the second.

Compared with LU99A, BEN is lower in relative viability: 0.849 for the first, 0.75 for the second.

First: NCI-H1395
Second: NCI-H1299
The relative viability of the first is higher: 1.1 for the first, 0.982 for the second.

same assay, conditions: first compound 0.8 µM

First: NCI-H838
Second: NCI-H1650
The relative viability of the first is higher: 1.36 for the first, 0.802 for the second.

Going from EBC-1 to NCI-H1703, the relative viability rises from 0.216 to 1.03.

Going from NCI-H1993 to PC-14, the relative viability falls from 0.829 to 0.382.

Compared with NCI-H596, NCI-H2126 is lower in relative viability: 0.972 for the first, 0.801 for the second.

Compared with EMC-BAC-2, NCI-H2085 is lower in relative viability: 0.93 for the first, 0.894 for the second.

First: Calu-6
Second: HCC-366
The relative viability of the first is lower: 1.09 for the first, 1.17 for the second.

Compared with NCI-H1666, NCI-H647 is higher in relative viability: 0.708 for the first, 1.78 for the second.

Compared with LK-2, NCI-H2087 is higher in relative viability: 0.843 for the first, 1.36 for the second.

Going from NCI-H358 to NCI-H2170, the relative viability falls from 0.47 to 0.247.

Going from H3255 to COR-L23, the relative viability rises from 0.249 to 1.49.

Compared with COR-L 105, IA-LM is higher in relative viability: 0.364 for the first, 0.797 for the second.

Going from LOU-NH91 to NCI-H1793, the relative viability falls from 0.734 to 0.641.

Compared with NCI-H2405, HOP-62 is lower in relative viability: 1.13 for the first, 1.08 for the second.

Going from HCC-44 to A549, the relative viability falls from 1.12 to 1.1.

Going from SK-MES-1 to LU99A, the relative viability rises from 0.5 to 1.08.

First: BEN
Second: NCI-H1395
The relative viability of the first is lower: 0.735 for the first, 0.986 for the second.

NCI-H1299 showed a relative viability of 0.98.

same assay, conditions: first compound 2.53 µM

Compared with NCI-H838, NCI-H1650 is higher in relative viability: 0.114 for the first, 0.154 for the second.

First: EBC-1
Second: NCI-H1703
The relative viability of the first is higher: 0.233 for the first, 0.218 for the second.

First: NCI-H1993
Second: PC-14
The relative viability of the first is higher: 0.43 for the first, 0.3 for the second.

First: NCI-H596
Second: NCI-H2126
The relative viability of the first is higher: 0.867 for the first, 0.772 for the second.

Going from EMC-BAC-2 to NCI-H2085, the relative viability falls from 0.921 to 0.52.

First: Calu-6
Second: NCI-H1666
The relative viability of the first is higher: 0.745 for the first, 0.452 for the second.

First: NCI-H647
Second: LK-2
The relative viability of the first is lower: 0.0824 for the first, 0.472 for the second.

Compared with NCI-H2087, NCI-H358 is higher in relative viability: 0.254 for the first, 0.375 for the second.

Compared with NCI-H2170, H3255 is lower in relative viability: 0.272 for the first, 0.235 for the second.

Compared with COR-L23, COR-L 105 is lower in relative viability: 1.05 for the first, 0.276 for the second.

Going from IA-LM to LOU-NH91, the relative viability falls from 1.01 to 0.564.

First: NCI-H1793
Second: NCI-H2405
The relative viability of the first is lower: 0.144 for the first, 0.269 for the second.

First: HOP-62
Second: HCC-44
The relative viability of the first is higher: 1.06 for the first, 0.624 for the second.

Compared with A549, SK-MES-1 is lower in relative viability: 0.545 for the first, 0.449 for the second.

Going from BEN to NCI-H1395, the relative viability rises from 0.791 to 0.851.

NCI-H1299 showed a relative viability of 0.933.

same assay, conditions: first compound 8 µM

Compared with NCI-H838, NCI-H1650 is lower in relative viability: 0.182 for the first, 0.119 for the second.

First: EBC-1
Second: NCI-H1703
The relative viability of the first is higher: 0.197 for the first, 0.17 for the second.

Compared with NCI-H1993, PC-14 is lower in relative viability: 0.646 for the first, 0.294 for the second.

Compared with NCI-H596, NCI-H2126 is higher in relative viability: 0.421 for the first, 0.737 for the second.

Compared with EMC-BAC-2, NCI-H2085 is lower in relative viability: 0.806 for the first, 0.591 for the second.

First: Calu-6
Second: HCC-366
The relative viability of the first is higher: 0.476 for the first, 0.356 for the second.

Going from NCI-H1666 to NCI-H647, the relative viability falls from 0.336 to 0.157.

First: LK-2
Second: NCI-H2087
The relative viability of the first is lower: 0.321 for the first, 0.966 for the second.

Going from NCI-H358 to NCI-H2170, the relative viability rises from 0.2 to 0.258.

Going from H3255 to COR-L23, the relative viability rises from 0.233 to 0.47.

Going from COR-L 105 to IA-LM, the relative viability rises from 0.292 to 0.777.

First: LOU-NH91
Second: NCI-H1793
The relative viability of the first is higher: 0.537 for the first, 0.207 for the second.

First: NCI-H2405
Second: HOP-62
The relative viability of the first is lower: 0.234 for the first, 1.12 for the second.

Going from HCC-44 to A549, the relative viability falls from 0.619 to 0.215.
